These compounds were tested on luciferase reporter construct containing a UGA premature termination codon (assay: cell-based luciferase reporter assay (nonsense suppression / readthrough)). Conditions: ranking combining potency and efficacy of protein synthesis; UGA luciferase reporter stably transfected in 293T Human Embryonic Kidney cells.
Parameters: key: *****: both extremely high potency and extremely high efficacy of protein synthesis; ****: extremely high potency of protein synthesis and very high efficacy; ****: very high potency of protein synthesis and extremely high efficacy; ***: both very high potency and very high efficacy of protein synthesis; **: very high potency of protein synthesis and significant efficacy; **: significant potency of protein synthesis and very high efficacy; *: significant potency and efficacy of protein synthesis
Description: Activity measurements in Table I were performed in a cell-based luciferase reporter assay (as described in Section 4.2) comprising a luciferase reporter construct containing a UGA premature termination codon that was stably transfected in 293T Human Embryonic Kidney cells. A small molecule (3-[3-(4-Isopropyl-phenyl)-2,5-dioxoimidazolidin-1-yl]-benzoic acid) known to allow readthrough of premature termination codons, was used as an internal standard. Activity measurements are based on the qualitative relation between the minimum concentration of compound required to produce a given protein in a cell (potency) and the maximum amount of protein produced by the cell (efficacy). Potency and efficacy activities are ranked as either extremely high, very high or significant.
The test compounds identified in the nonsense suppression assay (for convenience referred to herein as a “lead” compound) can be tested for biological activity using host cells containing or engineered to contain the target RNA element coupled to a functional readout system. For example, the lead compound can be tested in a host cell engineered to contain the RNA with the premature translation termination codon controlling the expression of a reporter gene. In this example, the lead compounds are assayed in the presence or absence of the RNA with the premature translation termination codon. Compounds that modulate premature translation termination and/or nonsense-mediated mRNA decay in vivo will result in increased expression of the full-length gene, i.e., past the premature termination codon. Alternatively, a phenotypic or physiological readout can be used to assess activity of the target RNA with the premature translation termination codon in the presence and absence of the lead compound. Both the in vitro and in vivo nonsense suppression assays used herein and as described in International Patent Publication WO 01/44516, which is incorporated by reference in its entirety, can be used to identify lead compounds can also be used to determine an EC50 for the lead compounds.
A stable cell line harboring the […] nonsense-containing luciferase gene is treated with a test compound. Cells are grown in standard medium supplemented with 1% penicillin-streptomycin (P/S) and 10% fetal bovine serum (FBS) to 70% confluency and split 1:1 the day before treatment. The next day, cells are trypsinized and 40,000 cells are added to each well of a 96-well tissue culture dish. Serial dilutions of each compound are prepared to generate a six-point dose response curve spanning 2 logs ([…]). The final concentration of the DMSO solvent remains constant at 1% in each well. Cells treated with 1% DMSO serve as the background standard, and cells treated with gentamicin serve as a positive control.

SMILES	Activity
O=C(O)c1cccc(N2CCN(c3ccc(I)cc3)C2=O)c1 [Compound 43, 3-[3-(4-Iodo-phenyl)-2-oxo-imidazolidin-1-yl]-benzoic acid]	*****
O=C(O)c1cccc(N2CCN(c3ccc(N4CCCC4)cc3)C2=O)c1 [Compound 44, 3-[2-Oxo-3-(4-pyrrolidin-1-yl-phenyl)-imidazolidin-1-yl]-benzoic acid]	****
O=C(O)c1cccc(N2CCN(c3ccc(C(F)(F)F)cc3)C2=O)c1 [Compound 45, 3-[2-Oxo-3-(4-trifluoromethyl-phenyl)-imidazolidin-1-yl]-benzoic acid]	*****
O=C(O)c1cccc(N2CCN(c3ccc(-n4cccc4)cc3)C2=O)c1 [Compound 46, 3-[2-Oxo-3-(4-pyrrol-1-yl-phenyl)-imidazolidin-1-yl]-benzoic acid]	*****
CN(C)c1ccc(N2CCN(c3cccc(C(=O)O)c3)C2=O)cc1 [Compound 47, 3-[3-(4-Dimethylamino-phenyl)-2-oxo-imidazolidin-1-yl]-benzoic acid]	*****
Cc1ccc(N2CCN(c3cccc(C(=O)O)c3)C2=O)cc1 [Compound 48, 3-(2-Oxo-3-p-tolyl-imidazolidin-1-yl)-benzoic acid]	*****
COc1ccc(N2CCN(c3cccc(C(=O)O)c3)C2=O)cc1 [Compound 49, 3-[3-(4-Methoxy-phenyl)-2-oxo-imidazolidin-1-yl]-benzoic acid]	****
O=C(O)c1cccc(N2CCN(c3ccc4c(c3)OC(F)(F)O4)C2=O)c1 [Compound 50, 3-[3-(2,2-Difluoro-benzo[1,3]dioxol-5-yl)-2-oxo-imidazolidin-1-yl]-benzoic acid]	****
O=C(O)c1cccc(N2CCN(c3ccc4c(c3)OC(F)(F)C(F)(F)O4)C2=O)c1 [Compound 51, 3-[2-Oxo-3-(2,2,3,3-tetrafluoro-2,3-dihydro-benzo[1,4]dioxin-6-yl)-imidazolidin-1-yl]-benzoic acid]	*****
COc1ccc(C(=O)O)cc1N1CCN(c2ccc(C(F)(F)F)cc2)C1=O [Compound 52, 4-Methoxy-3-[2-oxo-3-(4-trifluoromethyl-phenyl)-imidazolidin-1-yl]-benzoic acid]	*
O=C(O)c1cc(N2CCN(c3ccc(C(F)(F)F)cc3)C2=O)ccc1F [Compound 53, 2-Fluoro-5-[2-oxo-3-(4-trifluoromethyl-phenyl)-imidazolidin-1-yl]-benzoic acid]	****
O=C(O)c1cc(N2CCN(c3ccc(C(F)(F)F)cc3)C2=O)ccc1Cl [Compound 54, 2-Chloro-5-[2-oxo-3-(4-trifluoromethyl-phenyl)-imidazolidin-1-yl]-benzoic acid]	****
O=C(O)c1ccc(F)c(N2CCN(c3ccc(C(F)(F)F)cc3)C2=O)c1 [Compound 55, 4-Fluoro-3-[2-oxo-3-(4-trifluoromethyl-phenyl)-imidazolidin-1-yl]-benzoic acid]	*
O=C(O)c1cccc(N2CCN(c3ccc(N4CCN(c5ccccc5)CC4)cc3)C2=O)c1 [Compound 56, 3-{2-Oxo-3-[4-(4-phenyl-piperazin-1-yl)-phenyl]-imidazolidin-1-yl}-benzoic acid]	*
COc1ccc(N2CCN(c3ccc(C(F)(F)F)cc3)C2=O)cc1C(=O)O [Compound 57, 2-Methoxy-5-[2-oxo-3-(4-trifluoromethyl-phenyl)-imidazolidin-1-yl]-benzoic acid]	*
O=C(O)c1cccc(N2CCN(c3ccc(C(F)(F)F)cc3)C2=O)c1F [Compound 58, 2-Fluoro-3-[2-oxo-3-(4-trifluoromethyl-phenyl)-imidazolidin-1-yl]-benzoic acid]	**
O=C(O)c1cccc(N2CCN(c3ccc(N4CCCCC4)cc3)C2=O)c1 [Compound 59, 3-[2-Oxo-3-(4-piperidin-1-yl-phenyl)-imidazolidin-1-yl]-benzoic acid]	****
CC(C)c1ccc(N2CCN(c3cccc(C(=O)O)c3)C2=S)cc1 [Compound 60, 3-[3-(4-Isopropyl-phenyl)-2-thioxo-imidazolidin-1-yl]-benzoic acid]	****
O=C(O)c1cccc(N2CCN(c3ccc(OCC(=O)N4CCN(c5ccccc5)CC4)cc3)C2=O)c1 [Compound 61, 3-(2-Oxo-3-{4-[2-oxo-2-(phenyl-piperazin-1-yl)-ethoxy]-phenyl}-imidazolidin-1-yl)-benzoic acid]	*

SMILES	Activity
CC1(C)CN(c2ccc(OC(F)(F)F)cc2)C(=O)N1c1cccc(C(=O)O)c1 [Compound 62, 3-[5,5-Dimethyl-2-oxo-3-(4-trifluoromethoxy-phenyl)-imidazolidin-1-yl]-benzoic acid]	*
O=C(O)c1cccc(N2CCN(c3ccc(F)c(C(F)(F)F)c3)C2=O)c1 [Compound 63, 3-[3-(4-Fluoro-3-trifluoromethyl-phenyl)-2-oxo-imidazolidin-1-yl]-benzoic acid]	****
O=C(O)c1cccc(N2CCN(c3cccc(OC(F)(F)F)c3)C2=O)c1 [Compound 64, 3-[2-Oxo-3-(3-trifluoromethoxy-phenyl)-imidazolidin-1-yl]-benzoic acid]	****
O=C(O)c1cccc(N2CCN(c3ccc(F)c(F)c3)C2=O)c1 [Compound 65, 3-[3-(3,4-Difluoro-phenyl)-2-oxo-imidazolidin-1-yl]-benzoic acid]	*****
O=C(O)c1cccc(N2CCN(c3cc(F)ccc3F)C2=O)c1 [Compound 67, 3-[3-(2,5-Difluoro-phenyl)-2-oxo-imidazolidin-1-yl]-benzoic acid]	**
O=C(O)c1cccc(N2CCN(c3ccccc3F)C2=O)c1 [Compound 68, 3-[3-(2-Fluoro-phenyl)-2-oxo-imidazolidin-1-yl]-benzoic acid]	***
O=C(O)c1cccc(N2CCN(c3cccc(F)c3)C2=O)c1 [Compound 69, 3-[3-(3-Fluoro-phenyl)-2-oxo-imidazolidin-1-yl]-benzoic acid]	*****
O=C(O)c1cccc(N2CCN(c3ccc(F)cc3)C2=O)c1 [Compound 70, 3-[3-(4-Fluoro-phenyl)-2-oxo-imidazolidin-1-yl]-benzoic acid]	*****
Cc1ccc(N2CCN(c3cccc(C(=O)O)c3)C2=O)cc1F [Compound 71, 3-[3-(3-Fluoro-4-methyl-phenyl)-2-oxo-imidazolidin-1-yl]-benzoic acid]	*****
O=C(O)c1cccc(N2CCN(c3ccc(C(F)(F)F)cn3)C2=O)c1 [Compound 72, 3-[2-Oxo-3-(5-trifluoromethyl-pyridin-2-yl)-imidazolidin-1-yl]-benzoic acid]	****
O=C(O)c1cccc(N2CCN(c3cccs3)C2=O)c1 [Compound 73, 3-(2-Oxo-3-thiophen-2-yl-imidazolidin-1-yl)-benzoic acid]	****
O=C(O)c1cccc(N2CCN(c3ccsc3)C2=O)c1 [Compound 74, 3-(2-Oxo-3-thiophen-3-yl-imidazolidin-1-yl)-benzoic acid]	****
O=C(O)c1cccc(N2CCN(c3ccc(F)cc3F)C2=O)c1 [Compound 75, 3-[3-(2,4-Difluoro-phenyl)-2-oxo-imidazolidin-1-yl]-benzoic acid]	*
CN1CCN(c2ccc(N3CCN(c4cccc(C(=O)O)c4)C3=O)cc2)CC1 [Compound 76, 3-{3-[4-(4-Methyl-piperazin-1-yl)-phenyl]-2-oxo-imidazolidin-1-yl}-benzoic acid]	*
O=C(O)c1cccc(N2CCN(c3ccc(OCC(=O)N4CCOCC4)cc3)C2=O)c1 [Compound 77, 3-{3-[4-(2-Morpholin-4-yl-2-oxo-ethoxy)-phenyl]-2-oxo-imidazolidin-1-yl}-benzoic acid]	*
CN1CCN(C(=O)COc2ccc(N3CCN(c4cccc(C(=O)O)c4)C3=O)cc2)CC1 [Compound 78, 3-(3-{4-[2-(4-Methyl-piperazin-1-yl)-2-oxo-ethoxy]-phenyl}-2-oxo-imidazolidin-1-yl)-benzoic acid]	*
O=C(O)c1cccc(N2CCN(c3ccc(F)nc3)C2=O)c1 [Compound 79, 3-[3-(6-Fluoro-pyridin-3-yl)-2-oxo-imidazolidin-1-yl]-benzoic acid]	*
Cc1ccc(C(=O)O)cc1N1CCN(c2ccc(C(F)(F)F)cc2)C1=O [Compound 80, 4-Methyl-3-[2-oxo-3-(4-trifluoromethyl-phenyl)-imidazolidin-1-yl]-benzoic acid]	*

— patent US8334313B2, “Ureido substituted benzoic acid compounds and their use for nonsense suppression and the treatment of disease” (PTC Therapeutics, Inc., priority 2002, dated 2012)
